In brackets after ≈: the same amount, converted by molar mass. Several values for one entry are separate records, joined by “and”; a condition that tells them apart may be missing. Equal values may be shown once. Read-outs that look alike come from different tables or passages of the source.
Legend:
[1] = tested on: Klebsiella pneumoniae ATCC 35657; test: MIC by broth microdilution (CLSI M07-A9); format: cell-based; conditions: Muller Hinton broth, 37° C.
Procedure: (§1) To test the antimicrobial activity of linezolid and linezolid conjugated with 3FG6P (Lzd-3FG6P) against Gram-positive and Gram-negative pathogens, the pathogens Staphylococcus aureus ATCC 25923, Klebsiella pneumoniae ATCC 35657, Acinetobacter baumannii ATCC BAA1605, Escherichia coli ATCC 25922, Enterobacter cloacae ATCC 13047, Enterobacter aerogenes ATCC13048, and Salmonella typhimurium ATCC 14028 were used. The minimal inhibitory concentration (MIC) was determined using broth microdilution following the instructions of Clinical and Laboratory Standards Institute (CLSI) document M07-A9 (Clinical and Laboratory Standards Institute. 2012. M07-A9. Methods for dilution antimicrobial susceptibility tests for bacteria that grow aerobically: approved standard. 9th ed. Clinical and Laboratory Standards Institute, Wayne, PA). Briefly, these bacterial strains were grown in Muller Hinton broth (MHB) until exponential phage (OD600<1.0). The exponentially grown testing bacteria were diluted to an OD600 of 0.01 in MHB and aliquoted in a 96 well plate. Stocks of linezolid (Lzd) and linezolid conjugated with 3FG6P (Lzd-3FG6P) were prepared at 10 mg/ml in DMSO which was diluted by two-fold serial dilutions from 64 μg/ml to 2 μg/ml (final concentration) and added to the 96 well plate. A DMSO control (0 μg/ml in the figures) was included. The plate was incubated at 37° C. and the growth of bacteria was monitored by measuring OD600 using a Cytation 5 plate reader (BioTek).

[2] = tested on: Enterobacter cloacae ATCC 13047; test: MIC by broth microdilution (CLSI M07-A9); format: cell-based; conditions: Muller Hinton broth, 37° C.
Procedure: as §1

[3] = tested on: Acinetobacter baumannii ATCC BAA1605; test: MIC by broth microdilution (CLSI M07-A9); format: cell-based; conditions: Muller Hinton broth, 37° C.
Procedure: as §1

[4] = tested on: Staphylococcus aureus ATCC 25923; test: MIC by broth microdilution (CLSI M07-A9); format: cell-based; conditions: Muller Hinton broth, 37° C.
Procedure: as §1

[5] = tested on: Escherichia coli ATCC 25922; test: MIC by broth microdilution (CLSI M07-A9); format: cell-based; conditions: Muller Hinton broth, 37° C.
Procedure: as §1

[6] = tested on: Salmonella typhimurium ATCC 14028; test: MIC by broth microdilution (CLSI M07-A9); format: cell-based; conditions: Muller Hinton broth, 37° C.
Procedure: as §1

[7] = tested on: Enterobacter aerogenes ATCC13048; test: MIC by broth microdilution (CLSI M07-A9); format: cell-based; conditions: Muller Hinton broth, 37° C.
Procedure: as §1

[8] = tested on: bioluminescent E. coli strain; test: Mouse urinary tract infection with bioluminescent E. coli; format: in vivo, C57BL/6 mice; conditions: 80 mg/kg intraperitoneal at 2, 24 and 48 hours; 72 hours after infection
Procedure: C57BL/6 mice were transurethrally inoculated with bioluminescent E. coli strain and treated with PBS, linezolid (80 mg/kg), and linezolid conjugated with 3FG6P (80 mg/kg) at 2, 24, and 48 hours after inoculation. 72 hours after inoculation, the progress of the infection was monitored using a IVIS Lumina XR small animal imaging system and the bacterial burden in the kidney and bladder was determined by a plate counting method.
To test the in vivo antimicrobial activity of linezolid and linezolid conjugated with 3FG6P, clinical E. coli strains were constructed that constitutively express a bioluminescent light signal using pLuxABCDE plasmid. See Karsi A. Lawrence M L. Broad host range fluorescence and bioluminescence expression vectors for Gram-negative bacteria. Plasmid. 2007; 57(3):286-95. Epub 2007/01/09. doi: 10.1016/j.plasmid.2006.11.002. PubMed PMID: 17207855 for real time monitoring of the progress of infections. Six- to eight-week old female C57BL/6 mice were purchased from Harlan laboratory and were housed and maintained according to the protocol approved by the institutional animal care and use committee at Mississippi State University. Animals (n=6/group) were transurethrally infected with 50 μl of bioluminescent E. coli strain suspended in PBS (2×10^9 CFU/ml). Animals were treated with an intraperitoneal injection of linezolid (80 mg/kg), linezolid conjugated with 3FG6P (80 mg/kg) or PBS control at 2, 24, and 48 hours after infection. The progress of the infection was monitored by measuring the bioluminescent light signal using an IVIS Lumina X R small animal imaging system. After 72 hours infection, animals were humanely euthanized and the bladder and kidney samples were collected, homogenized, and serially diluted, and the serial dilutions were plated on blood agar to determine the bacterial burden. A transurethral inoculation of E. coli established persistent infections in the kidney and bladder in the absence of antibiotic treatment (PBS control group). The mean bacterial counts in the kidney and bladder were log10 6.328±0.132 and log10 6.171+0.155 CFU/g, respectively (FIG. 12).

[9] = tested on: Gram positive and Gram-negative pathogens; test: Broth microdilution growth inhibition, summary over all tested pathogens; format: cell-based
Procedure: as §1, with “Stocks of linezolid (Lzd) and linezolid conjugated with 3FG6P (Lzd-3FG6P) were prepared at 10 mg/ml in DMSO which was diluted by two-fold serial dilutions from 64 μg/ml to 2 μg/ml (final concentration) and added to the 96 well plate. A DMSO control (0 μg/ml in the figures) was included.” left out

[10] = tested on: S. aureus COL strain; test: Growth in BHI broth with fosfomycin, with or without 4FG6P; format: cell-based, Staphylococcus aureus
From the text: (§2) FIGS. 13A to 13D show a comparison of the antimicrobial activity of fosfomycin alone (FIG. 13A) and fosfomycin conjugated with 3FG6P or 4FG6P (FIG. 13B) against a fosfomycin resistant E. coli clinical isolate, and fosfomycin alone (FIG. 13C) and fosfomycin conjugated with 3FG6P or 4FG6P (FIG. 13D) against an S. aureus COL strain. The key in FIG. 13D applies to all graphs of FIGS. 13A-13D.
(§3) To test whether 3FG6P and 4FG6P can potentiate the efficacy of fosfomycin, clinical fosfomycin resistant UTI E. coli isolates harboring the fosA gene and S. aureus COL strain were obtained. Overnight cultures of these bacteria were grown in brain heart infusion (BHI) broth diluted to 0.5 McFarland turbidity and inoculated into fresh BHI broth supplemented with various concentrations of fosfomycin alone or fosfomycin supplemented with 3FG6P for E. coli or 4FG6P for S. aureus (50 μM).

[11] = tested on: fosfomycin resistant UTI E. coli isolates harboring the fosA gene; test: Growth in BHI broth with fosfomycin, with or without 3FG6P; format: cell-based, Escherichia coli
From the text: as §2, §3

[12] = tested on: Enterobacteriaceae; conditions: cited from earlier work
[13] = cited from earlier work
[14] = tested on: UhpT expression (HptARS system) in S. aureus LAC strain; test: uhpT promoter-LuxABCDE bioluminescent reporter for UhpT expression; format: cell-based, Staphylococcus aureus; conditions: 500 μM in brain heart infusion broth
Procedure: FIG. 5 illustrates a LuxABCDE reporter system for monitoring expression of the UhpT by measuring bioluminescent light signals and strong and stable induction of UhpT expression by 3FG6P. S. aureus LAC strain harboring the LuxABCDE reporter system was cultured in a brain heart infusion broth supplemented with 500 μM glucose (Glc), glucose-6-phosphate (G6P), and 3-fluoro-glucose-6-phosphate (3FG6P) and the bioluminescent signal was monitored using a Cytation 5.
To test whether 3FG6P can induce expression of the UhpT, we generated a bioluminescent reporter plasmid in which the promoter region of the uhpT was fused to the promoterless LuxABCDE operon (FIG. 5). See Francis K P, Joh D, Bellinger-Kawahara C, Hawkinson M J, Purchio T F, Contag P R. Monitoring bioluminescent Staphylococcus aureus infections in living mice using a novel luxABCDE construct. Infection and immunity. 2000; 68(6):3594-600. Epub 2000/05/19. PubMed PMID: 10816517; PMCID: PMC97648 and Karsi A, Lawrence M L. Broad host range fluorescence and bioluminescence expression vectors for Gram-negative bacteria. Plasmid. 2007; 57(3):286-95. Epub 2007/01/09. doi: 10.1016/j.plasmid.2006.11.002. PubMed PMID: 17207855 for monitoring of the expression of UhpT by measuring bioluminescent light signals.

[15] = tested on: vancomycin-resistant Enterococcus (VRE)faecalis and faecium; conditions: cited from earlier work
[16] = tested on: Pseudomonas aeruginosa; conditions: cited from earlier work
[17] = tested on: Escherichia coli; conditions: cited from earlier work
[18] = tested on: Acinetobacter spp; conditions: cited from earlier work
[19] = tested on: Klebsiella pneumoniae; conditions: cited from earlier work
[20] = tested on: Proteus penneri; conditions: cited from earlier work
[21] = tested on: Neisseria gonorrhea; conditions: cited from earlier work
[22] = tested on: methicillin-resistant Staphylococcus aureus (MRSA); conditions: cited from earlier work
[23] = tested on: Stenotrophomonas maltophilia; conditions: cited from earlier work
[24] = tested on: Staphylococcus epidermidis (MRSE); conditions: cited from earlier work
[25] = BHI supplemented with 50 μM of 4FG6P

Compound `CC(=O)NC[C@H]1CN(c2ccc(N3CCN(C(=O)CCCOC4OC(COP(=O)(O)O)[C@@H](O)C(F)C4O)CC3)c(F)c2)C(=O)O1` (stereo partly shown) [Linezolid-3FG6P] has an MIC ([1]; Klebsiella pneumoniae, ATCC35657, read-out: MIC) of under 2 µg/mL, an MIC ([2]; Enterobacter cloacae, ATCC13047, read-out: MIC) of under 2 µg/mL and an MIC ([3]; Acinetobacter baumannii, ATCCBAA1605, read-out: MIC) of under 2 µg/mL. The MIC ([4]; Staphylococcus aureus, ATCC25923, read-out: MIC) was under 2 µg/mL, the MIC ([5]; Escherichia coli, ATCC25922, read-out: MIC) was 4 µg/mL (≈ 6 µM) and the MIC ([6]; Salmonella enterica, read-out: MIC) was 8 µg/mL (≈ 12 µM). The MIC ([7]; Klebsiella aerogenes, ATCC13048, read-out: MIC) was 4 µg/mL (≈ 6 µM), the “bacterial counts in the bladder” value [8] was “nearly completely cleared the infection” and the “bacterial counts in the kidney” value [8] was “completely cleared the infection”. The “concentration range inhibiting growth” value ([9]; both Gram positive and Gram-negative pathogens) was 2 to 8 µg/mL.

With `C[C@@H]1O[C@@H]1P(=O)(O)O` [fosfomycin] the “fosfomycin concentration at which growth was completely inhibited” value [10, 25] was 32 µg/mL, the “growth at fosfomycin concentrations lower than 32 μg/ml” value [10, 25] was “significantly delayed” and the “fosfomycin concentration up to which growth was allowed” value ([10]; BHI, fosfomycin alone) was “up to 128 μg/ml”. For the same compound, the “fosfomycin concentration at which growth was completely inhibited” value ([11]; BHI supplemented with 50 μM of 3FG6P) was at most 2 µg/mL, the “fosfomycin concentration up to which growth was allowed” value ([11]; BHI, fosfomycin alone) was “up to 128 μg/ml” and the “minimum inhibitory concentration (MIC) breakpoint” value [12] was 8 to 32 µg/mL. The “metabolism in the liver” value ([13]; in vivo) was “not metabolized in the liver” and the oral bioavailability ([13]; oral administration) was 30-37%.

In the case of `O=C[C@H](O)[C@@H](O)[C@H](O)[C@H](O)COP(=O)(O)O` [glucose-6-phosphate], the “duration of induced bioluminescent light signals” value [14] was 8 h.

In the case of “(S)—N-[[3-[3-fluoro-4-(N-1-piperazinyl)phenyl]-2-oxo-5-oxazolidinyl]methyl]acetamide [Linezolid]”, the MIC90 [15] is listed as 1 to 4 µg/mL and 2 µg/mL, the antimicrobial activity [16] is listed as “not active” and the MIC [1] is listed as over 64 µg/mL. The MIC [2] was over 64 µg/mL, the MIC [3] was over 64 µg/mL and the MIC [4] was under 2 µg/mL. For the same compound, the MIC ([4]; listed as linezolid) was “less than 2 μg/ml”, the MIC [5] was over 64 µg/mL and the MIC [6] was over 64 µg/mL. The MIC [7] was over 64 µg/mL, the antimicrobial activity [17] was “not active” and the antimicrobial activity [18] was “not active”. The antimicrobial activity [19] was “not active”, the antimicrobial activity [20] was “not active” and the MIC90 [21] was 16 µg/mL. The MIC90 [22] was 1 to 4 µg/mL and 2 µg/mL, the “bacterial counts in the bladder” value [8] was “did not reduce bacterial counts” and the “bacterial counts in the kidney” value [8] was “did not reduce bacterial counts”. The “concentration failing to inhibit growth” value ([9]; Gram-negative pathogens) was 64 µg/mL, the antimicrobial activity [23] was “not active” and the MIC90 [24] was 1 to 4 µg/mL and 1 µg/mL.

Reference: patent US20230372492A1, “DRUGS CONJUGATED WITH HEXOSE PHOSPHATE AND METHODS OF MAKING AND USING SAME” (MISSISSIPPI STATE UNIVERSITY, priority 2020, published 2023)
